“And” between values parts separate entries of the source, which are not always exact repeats. Equal values may be shown once. Toxic doses and inconclusive results are not listed. Cut-off read from the data, not from the text of the source: active = T/C of 150% or more; inactive = T/C below 125%.
Test system: L1210 leukemia ip in BDF1 mice, survival T/C
Test: NCI In Vivo Anticancer Drug Screen. Data for tumor model L1210 Leukemia (intraperitoneal) in B6D2F1 (BDF1) mice
Conditions: endpoint: mean survival time, higher = longer survival
Summary of the method: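 In this screen, tumor-bearing mice given compound are compared to those given vehicle, and their survival values are reported as a treated-to-control quotient.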

[1] = dose: 100.0 mg/kg/injection, schedule: Q01DX001 (ip), vehicle: saline
[2] = dose: 200.0 mg/kg/injection, schedule: Q01DX001 (ip), vehicle: saline
[3] = dose: 400.0 mg/kg/injection, schedule: Q01DX001 (ip), vehicle: saline
[4] = dose: 100.0 mg/kg/injection, schedule: Q04DX003 (ip), vehicle: saline
[5] = dose: 100.0 mg/kg/injection, schedule: Q01DX009 (ip), vehicle: saline
[6] = dose: 400.0 mg/kg/injection, schedule: Q01DX009 (ip), vehicle: saline
[7] = dose: 100.0 mg/kg/injection, schedule: Q04DX002 (ip), vehicle: saline with Tween-80
[8] = dose: 100.0 mg/kg/injection, schedule: Q01DX009 (ip), vehicle: Klucel (hydroxypropylcellulose) (HPC)
[9] = dose: 200.0 mg/kg/injection, schedule: Q01DX009 (ip), vehicle: Klucel (hydroxypropylcellulose) (HPC)
[10] = dose: 100.0 mg/kg/injection, schedule: Q04DX003 (ip), vehicle: saline with Tween-80
[11] = dose: 100.0 mg/kg/injection, schedule: Q01DX001 (ip), vehicle: other
[12] = dose: 200.0 mg/kg/injection, schedule: Q01DX001 (ip), vehicle: other
[13] = dose: 400.0 mg/kg/injection, schedule: Q01DX001 (ip), vehicle: other
[14] = dose: 200.0 mg/kg/injection, schedule: Q04DX003 (ip), vehicle: saline with Tween-80
[15] = dose: 100.0 mg/kg/injection, schedule: Q01DX009 (ip), vehicle: saline with Tween-80
[16] = dose: 200.0 mg/kg/injection, schedule: Q01DX009 (ip), vehicle: saline with Tween-80

Measured: T/C

O=C(Nc1ccc(C2=NCCN2)c(Cl)c1)c1cccc(C(=O)Nc2ccc(C3=NCCN3)c(Cl)c2)c1
inactive: dose: 15.0 mg/kg/injection, schedule: Q01DX Z (ip), vehicle: carboxymethylcellulose (CMC) 93 % of control | dose: 30.0 mg/kg/injection, schedule: Q01DX Z (ip), vehicle: carboxymethylcellulose (CMC) 86 % of control

CCC[CH2][Sn]1([CH2]CCC)[O]C(=O)C2C(C=C(C)C)C=C(C)C(C)C2C(=O)[O]1 (centres undefined)
inactive: dose: 5.0 mg/kg/injection, schedule: Q01DX001 (ip), vehicle: saline 93 % of control | dose: 10.0 mg/kg/injection, schedule: Q01DX001 (ip), vehicle: saline 104 % of control | dose: 20.0 mg/kg/injection, schedule: Q01DX001 (ip), vehicle: saline 104 % of control | dose: 40.0 mg/kg/injection, schedule: Q01DX001 (ip), vehicle: saline 96 % of control | dose: 80.0 mg/kg/injection, schedule: Q01DX001 (ip), vehicle: saline 102 % of control | [1] 117 % of control

O=C(CCCC(=O)NNC(=O)Nc1cccc(S(=O)(=O)F)c1)NNC(=O)Nc1cccc(S(=O)(=O)F)c1
inactive: dose: 50.0 mg/kg/injection, schedule: Q01DX001 (ip), vehicle: saline 106 % of control | [1] 112 % of control | [2] 96 % of control | [3] 112 % of control

CN(C)C(=O)c1ccc[n+](CC(=O)Nc2ccc(Cl)cc2)c1
inactive: [4] 98 % of control

CC(C)(C)C(C)(O)CN (centres undefined)
inactive: [5] 95 % of control | dose: 200.0 mg/kg/injection, schedule: Q01DX009 (ip), vehicle: saline 95 % of control | [6] 95 % of control

CNC(=O)Oc1c([N+](=O)[O-])cc([N+](=O)[O-])c2ccccc12
inactive: dose: 75.0 mg/kg/injection, schedule: Q01DX001 (ip), vehicle: other 111 % of control | dose: 150.0 mg/kg/injection, schedule: Q01DX001 (ip), vehicle: other 102 % of control

CCCCNC(=S)C(CC)CCCC (centres undefined)
inactive: dose: 100.0 mg/kg/injection, schedule: Q04DX002 (sc), vehicle: olive oil, sesame oil, peanut oil 99 % of control | dose: 200.0 mg/kg/injection, schedule: Q04DX002 (sc), vehicle: olive oil, sesame oil, peanut oil 99 % of control | dose: 400.0 mg/kg/injection, schedule: Q04DX002 (sc), vehicle: olive oil, sesame oil, peanut oil 99 % of control

CCN(CC)CCN1C(=O)c2ccc3c4c(ccc(c24)C1=O)C(=O)N(CCN(CC)CC)C3=O
inactive: dose: 6.25 mg/kg/injection, schedule: Q01DX001 (ip), vehicle: saline 105 % of control | dose: 12.5 mg/kg/injection, schedule: Q01DX001 (ip), vehicle: saline 98 % of control

C/C=C(/Br)C(=O)O
inactive: dose: 12.5 mg/kg/injection, schedule: Q04DX002 (ip), vehicle: saline with Tween-80 113 % of control | dose: 25.0 mg/kg/injection, schedule: Q04DX002 (ip), vehicle: saline with Tween-80 105 % of control | dose: 50.0 mg/kg/injection, schedule: Q04DX002 (ip), vehicle: saline with Tween-80 98 % of control | [7] 105 % of control

CCCCC(SC(CC)(C(C)=O)c1ccccc1)C(N)=O (centres undefined)
inactive: dose: 100.0 mg/kg/injection, schedule: Q01DX001 (ip), vehicle: carboxymethylcellulose (CMC) 102 % of control | dose: 200.0 mg/kg/injection, schedule: Q01DX001 (ip), vehicle: carboxymethylcellulose (CMC) 113 % of control | dose: 400.0 mg/kg/injection, schedule: Q01DX001 (ip), vehicle: carboxymethylcellulose (CMC) 96 % of control

CCC[Si](C)(C)CCC
inactive: [1] 100 % of control | [2] 98 % of control | [3] 100 % of control

O=C(O)c1c2ccccc2cc2ccccc12
inactive: [8] 105 % of control | [9] 107 % of control | dose: 400.0 mg/kg/injection, schedule: Q01DX009 (ip), vehicle: Klucel (hydroxypropylcellulose) (HPC) 104 % of control

O=C(Nc1ccc(F)cc1)c1cccc(C(=O)Nc2ccc(F)cc2)c1
inactive: dose: 25.0 mg/kg/injection, schedule: Q04DX003 (ip), vehicle: saline with Tween-80 96 % of control | dose: 50.0 mg/kg/injection, schedule: Q04DX003 (ip), vehicle: saline with Tween-80 93 % of control | [10] 95 % of control and 87 % of control

O=C(OCCCCCOC(=O)c1cccc([N+](=O)[O-])c1)c1cccc([N+](=O)[O-])c1
inactive: [11] 93 % of control | [12] 96 % of control | [13] 95 % of control

CCOC(=O)Nc1nccs1
inactive: [10] 105 % of control | [14] 96 % of control

CCCCOP(=S)(OCCCC)[S][Hg][c]1ccco1
inactive: dose: 25.0 mg/kg/injection, schedule: Q04DX002 (ip), vehicle: alcohol 97 % of control | dose: 50.0 mg/kg/injection, schedule: Q04DX002 (ip), vehicle: alcohol 97 % of control

c1ccc2c3c(ccc2c1)OCCCCCOc1ccc2ccccc2c1-c1c(ccc2ccccc12)OCCOCCOc1ccc2ccccc2c1-3
inactive: dose: 100.0 mg/kg/injection, schedule: Q01DX001 (ip), vehicle: saline with Tween-80 92 % of control | dose: 200.0 mg/kg/injection, schedule: Q01DX001 (ip), vehicle: saline with Tween-80 92 % of control | dose: 400.0 mg/kg/injection, schedule: Q01DX001 (ip), vehicle: saline with Tween-80 98 % of control

O=C(OC1CCCCC1)c1ccccc1-c1ccccc1C(=O)OC1CCCCC1
inactive: [11] 91 % of control | [12] 91 % of control | [13] 86 % of control

CCc1cc(C)cc(OC(=O)Nc2cccc(Cl)c2)c1
inactive: [15] 88 % of control | [16] 90 % of control

COc1ccc(N2C(=O)CC(Cl)C2=O)cc1 (centres undefined)
inactive: dose: 22.0 mg/kg/injection, schedule: Q04DX003 (ip), vehicle: Klucel (hydroxypropylcellulose) (HPC) 105 % of control | dose: 44.0 mg/kg/injection, schedule: Q04DX003 (ip), vehicle: Klucel (hydroxypropylcellulose) (HPC) 97 % of control | dose: 87.5 mg/kg/injection, schedule: Q04DX003 (ip), vehicle: saline with Tween-80 103 % of control | dose: 88.0 mg/kg/injection, schedule: Q04DX003 (ip), vehicle: Klucel (hydroxypropylcellulose) (HPC) 111 % of control

COc1ccc(SC2CCCCC2OS(C)(=O)=O)cc1 (centres undefined)
inactive: dose: 50.0 mg/kg/injection, schedule: Q01DX009 (ip), vehicle: Klucel (hydroxypropylcellulose) (HPC) 107 % of control | dose: 50.0 mg/kg/injection, schedule: Q04DX003 (ip), vehicle: Klucel (hydroxypropylcellulose) (HPC) 102 % of control | dose: 100.0 mg/kg/injection, schedule: Q01DX001 (ip), vehicle: Klucel (hydroxypropylcellulose) (HPC) 106 % of control | [8] 109 % of control | dose: 100.0 mg/kg/injection, schedule: Q04DX003 (ip), vehicle: Klucel (hydroxypropylcellulose) (HPC) 106 % of control | dose: 200.0 mg/kg/injection, schedule: Q01DX001 (ip), vehicle: Klucel (hydroxypropylcellulose) (HPC) 95 % of control | [9] 98 % of control | dose: 200.0 mg/kg/injection, schedule: Q04DX003 (ip), vehicle: Klucel (hydroxypropylcellulose) (HPC) 104 % of control

Cc1ccc2c(c1)C=CC(C#N)N2C(=O)OCc1ccccc1 (centres undefined)
inactive: [10] 95 % of control | [14] 97 % of control | dose: 400.0 mg/kg/injection, schedule: Q04DX003 (ip), vehicle: saline with Tween-80 94 % of control

O=C1OC(=O)C2C=CC=CC12 (centres undefined)
inactive: [7] 92 % of control | dose: 200.0 mg/kg/injection, schedule: Q04DX002 (ip), vehicle: saline with Tween-80 103 % of control | dose: 400.0 mg/kg/injection, schedule: Q04DX002 (ip), vehicle: saline with Tween-80 95 % of control

Oc1ccc(C(c2ccc(O)cc2)(C(F)(F)F)C(F)(F)F)cc1
inactive: [15] 105 % of control | dose: 100.0 mg/kg/injection, schedule: Q04DX003 (ip), vehicle: alcohol 101 % of control | [16] 97 % of control | dose: 200.0 mg/kg/injection, schedule: Q04DX003 (ip), vehicle: alcohol 95 % of control | dose: 400.0 mg/kg/injection, schedule: Q01DX009 (ip), vehicle: saline with Tween-80 109 % of control | dose: 400.0 mg/kg/injection, schedule: Q04DX003 (ip), vehicle: alcohol 102 % of control

O=C(O)CNCc1cccc(Cl)c1
inactive: dose: 50.0 mg/kg/injection, schedule: Q01DX009 (ip), vehicle: saline 94 % of control | [5] 101 % of control | [4] 95 % of control | dose: 200.0 mg/kg/injection, schedule: Q04DX003 (ip), vehicle: saline 93 % of control | [6] 101 % of control | dose: 400.0 mg/kg/injection, schedule: Q04DX003 (ip), vehicle: saline 102 % of control
